Key:
KCNQ5 = molecular target: T1, KCNQ5 (Homo sapiens, UniProt Q9NR82); assay: Two-electrode voltage clamp of KCNQ5 homomers expressed in Xenopus oocytes; type: cell-based; details: for effect on KCNQ5 currents: 10 µM, oocytes injected with KCNQ5 alone (no M1 receptor); for IC50: extracellular application, Xenopus oocytes, from plotted fit curves (Fig. 5A), means ± SEM of 4 to 12 measurements, read-out: IC50, inhibition of KCNQ5 homomers
T1 construct: expressed in transfected cells; host or cells: Xenopus oocytes injected with cRNA transcribed from the KCNQ5-containing pTLN vector
T1 sequence (Q9NR82 36-932 limits assumed): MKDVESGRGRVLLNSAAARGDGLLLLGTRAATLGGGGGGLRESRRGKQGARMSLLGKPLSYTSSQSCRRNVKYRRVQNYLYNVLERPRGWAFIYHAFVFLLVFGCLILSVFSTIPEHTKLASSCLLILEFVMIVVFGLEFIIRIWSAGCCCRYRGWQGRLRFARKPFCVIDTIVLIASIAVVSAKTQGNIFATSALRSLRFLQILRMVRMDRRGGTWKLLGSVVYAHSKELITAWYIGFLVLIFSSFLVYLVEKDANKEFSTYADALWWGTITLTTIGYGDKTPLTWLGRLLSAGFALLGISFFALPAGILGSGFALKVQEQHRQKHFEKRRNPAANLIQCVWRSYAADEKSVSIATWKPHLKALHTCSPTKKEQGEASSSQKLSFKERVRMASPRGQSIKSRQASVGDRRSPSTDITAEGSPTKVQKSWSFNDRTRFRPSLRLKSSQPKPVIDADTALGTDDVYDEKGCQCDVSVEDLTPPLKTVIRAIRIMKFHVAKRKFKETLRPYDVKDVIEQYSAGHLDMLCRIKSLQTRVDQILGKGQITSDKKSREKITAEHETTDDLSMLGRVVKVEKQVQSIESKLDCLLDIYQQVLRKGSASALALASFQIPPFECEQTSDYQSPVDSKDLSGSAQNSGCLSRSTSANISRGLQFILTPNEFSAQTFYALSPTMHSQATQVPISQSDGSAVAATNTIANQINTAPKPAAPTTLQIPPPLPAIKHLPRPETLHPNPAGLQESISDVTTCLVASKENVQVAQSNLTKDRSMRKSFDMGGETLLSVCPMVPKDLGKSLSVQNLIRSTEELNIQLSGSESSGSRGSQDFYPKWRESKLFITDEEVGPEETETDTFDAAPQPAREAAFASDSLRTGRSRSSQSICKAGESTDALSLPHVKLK
Excerpt: Two-electrode voltage-clamp current traces from a Xenopus oocyte injected with KCNQ5 cRNA. […] Starting from a holding potential of -80 mV cells were clamped for 2 seconds to voltages between -80 and +40 mV, in +10 mV steps, followed by a constant test pulse to -30 mV; • Figs. 4A-G show the electrophysiological properties of KCNQ5. Both the splice variant I (found in brain) and splice variant III (found in muscle) were expressed in Xenopus oocytes and examined by two-electrode voltage clamping. Both variants activate slowly upon depolarisation, but form I (4A) initially activates slower than the muscle form III (4B). Starting from a holding potential of -80 mV, the voltage was stepped for 0.8 seconds to values between -100 and + 40 mV in steps of 10 mV, followed by a voltage step to -30 mV (see inset, panel A). Channel activation by depolarization was fitted (for 2 sec. steps) by a sum of three exponential functions. For a step to +20 mV, the rate constants were ô1 = 37. 2 ± 2.2 ms, ô2 = 246 ± 17 ms, and ô3 = 1112 ± 91 ms for splice variant I, while these constants were ô1 = 24.5 ± 0.8 ms, ô2 = 163 ± 6 ms, and ô3 = 1690 ± 46 ms (± SEM, n=16). This difference in kinetics also results in different curves when a typical M-current protocol is used (4C, variant I; 4D, variant III). Variant I induces currents that kinetically resemble M-currents. In this protocol, the membrane voltage is clamped for 1 second to voltages between -30 and -90 mV in steps of -10 mV, from a holding potential of -30 mV. This was followed by a step to -30 mV (panel C, inset). (4E, 4F), apparent open probabilities of variants I (4E) and variant III (4F) as a function of voltage obtained from tail current analysis as described in Methods. Mean values obtained from 12 oocytes are shown. Fitting a Boltzmann equation yielded V½ = -46 ± 1 mV and an apparent gating charge of z = 2.8 ± 0.1 for isoform I, and V½ = -48 ± 1 mV and an apparent gating charge of z = 2.5 ± 0.1 for isoform III. For this fit, values at potentials more positive than +10 mV were excluded, as these are probably affected by a second (inactivation) gating process which leads to a decrease of apparent Popen at more positive potentials. (4G), ion selectivity of KCNQ5 currents (variant I). Extracellular sodium was replaced by equimolar amounts of potassium. The reversal potential is shown as a function of the potassium concentration. […] Data are from 10 oocytes from 2 different batches; • Figs. 5A-C show the pharmacology of KCNQ5 and KCNQ3/5 heteromers. (5A) Inhibition of KCNQ5 homomers by extracellular linopirdine (down triangles), XE991 (up triangles) and TEA (squares). […] (5B) Niflumic acid alters the voltage dependence of the apparent popen. In the presence of 500 µM niflumic acid (open circles), the voltage dependence is shifted about 20 mV towards negative potentials. (5C) TEA sensitivity is altered in KCNQ3/5 heteromers. Coexpression of KCNQ5 and KCNQ3 (1:1) (diamonds) increased the IC50 value to 200 mM, coexpression with the KCNQ3 (T323Y) mutant (circles) decreased the IC50 to ~ 30 mM. […] The pulse protocol is shown in the inset of panel b. No effect of 10 µM muscarine or oxotremorine methiodide was found in oocytes injected with KCNQ5 alone; and • Figs. 7A-C show the interactions between KCNQ2 and KCNQ5 (7A, 7B) and KCNQ3 and KCNQ5 (7C): • (7A) currents at the end of a two second pulse to 0 mV from a holding potential of -80 mV of oocytes injected with different combinations of KCNQ cRNAs (always 10 ng total amount of RNA). The current amplitude elicited by co-injecting KCNQ2 and KCNQ5 could be explained by a linear superposition of currents. Co-injection of KCNQ5 with the dominant negative mutant KCNQ2(G279S) or of KCNQ2 with the equivalent mutant KCNQ5(G278S) lead to a roughly 50% reduction in current amplitude, which is consistent with a lack of interaction since only 50% of WT cRNA was injected; • (7B) normalized current traces of experiments used for panel (A). […]

[1] = test system: KCNQ5 co-expressed with M1 receptors; assay: KCNQ5 currents in Xenopus oocytes co-expressing M1 receptors (two-electrode voltage clamp); type: cell-based, human; details: 10 µM muscarine, 3 minutes after applying; Fig. 6
Excerpt: Two-electrode voltage-clamp current traces from a Xenopus oocyte injected with KCNQ5 cRNA. […] Starting from a holding potential of -80 mV cells were clamped for 2 seconds to voltages between -80 and +40 mV, in +10 mV steps, followed by a constant test pulse to -30 mV; • Figs. 4A-G show the electrophysiological properties of KCNQ5. […] Starting from a holding potential of -80 mV, the voltage was stepped for 0.8 seconds to values between -100 and + 40 mV in steps of 10 mV, followed by a voltage step to -30 mV (see inset, panel A). Channel activation by depolarization was fitted (for 2 sec. steps) by a sum of three exponential functions. For a step to +20 mV, the rate constants were ô1 = 37. […] In this protocol, the membrane voltage is clamped for 1 second to voltages between -30 and -90 mV in steps of -10 mV, from a holding potential of -30 mV. This was followed by a step to -30 mV (panel C, inset). (4E, 4F), apparent open probabilities of variants I (4E) and variant III (4F) as a function of voltage obtained from tail current analysis as described in Methods. Mean values obtained from 12 oocytes are shown. […] For this fit, values at potentials more positive than +10 mV were excluded, as these are probably affected by a second (inactivation) gating process which leads to a decrease of apparent Popen at more positive potentials. (4G), ion selectivity of KCNQ5 currents (variant I). […]

KCNQ2/KCNQ3 channels = KCNQ2/KCNQ3 channels (Homo sapiens, UniProt O43525+O43526); details: 200 µM; cited from earlier work
Sequence of KCNQ2/KCNQ3 channels (O43526 whole entry): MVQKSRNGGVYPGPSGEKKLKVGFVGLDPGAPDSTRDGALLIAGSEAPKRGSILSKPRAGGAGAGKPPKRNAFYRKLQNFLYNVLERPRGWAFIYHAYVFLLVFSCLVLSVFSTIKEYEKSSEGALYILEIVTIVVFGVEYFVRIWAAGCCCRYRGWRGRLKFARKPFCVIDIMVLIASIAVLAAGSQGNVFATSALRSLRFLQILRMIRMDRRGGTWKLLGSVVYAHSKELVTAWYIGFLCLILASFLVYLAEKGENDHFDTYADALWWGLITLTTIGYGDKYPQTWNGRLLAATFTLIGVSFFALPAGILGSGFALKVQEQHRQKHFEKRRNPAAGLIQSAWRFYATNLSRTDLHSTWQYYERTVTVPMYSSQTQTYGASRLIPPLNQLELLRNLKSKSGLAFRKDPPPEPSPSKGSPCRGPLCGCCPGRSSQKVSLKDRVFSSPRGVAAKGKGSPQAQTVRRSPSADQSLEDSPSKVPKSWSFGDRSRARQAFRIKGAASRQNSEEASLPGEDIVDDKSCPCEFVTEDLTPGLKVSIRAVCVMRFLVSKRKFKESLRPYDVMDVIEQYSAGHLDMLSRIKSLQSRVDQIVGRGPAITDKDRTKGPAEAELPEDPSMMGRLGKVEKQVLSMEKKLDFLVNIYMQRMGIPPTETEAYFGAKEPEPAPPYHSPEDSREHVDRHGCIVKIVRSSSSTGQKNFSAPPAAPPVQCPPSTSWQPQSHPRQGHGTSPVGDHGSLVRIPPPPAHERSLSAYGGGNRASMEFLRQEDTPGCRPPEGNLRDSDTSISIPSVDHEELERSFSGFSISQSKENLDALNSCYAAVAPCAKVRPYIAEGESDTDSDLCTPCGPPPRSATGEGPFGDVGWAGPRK
Sequence of KCNQ2/KCNQ3 channels (O43525 whole entry): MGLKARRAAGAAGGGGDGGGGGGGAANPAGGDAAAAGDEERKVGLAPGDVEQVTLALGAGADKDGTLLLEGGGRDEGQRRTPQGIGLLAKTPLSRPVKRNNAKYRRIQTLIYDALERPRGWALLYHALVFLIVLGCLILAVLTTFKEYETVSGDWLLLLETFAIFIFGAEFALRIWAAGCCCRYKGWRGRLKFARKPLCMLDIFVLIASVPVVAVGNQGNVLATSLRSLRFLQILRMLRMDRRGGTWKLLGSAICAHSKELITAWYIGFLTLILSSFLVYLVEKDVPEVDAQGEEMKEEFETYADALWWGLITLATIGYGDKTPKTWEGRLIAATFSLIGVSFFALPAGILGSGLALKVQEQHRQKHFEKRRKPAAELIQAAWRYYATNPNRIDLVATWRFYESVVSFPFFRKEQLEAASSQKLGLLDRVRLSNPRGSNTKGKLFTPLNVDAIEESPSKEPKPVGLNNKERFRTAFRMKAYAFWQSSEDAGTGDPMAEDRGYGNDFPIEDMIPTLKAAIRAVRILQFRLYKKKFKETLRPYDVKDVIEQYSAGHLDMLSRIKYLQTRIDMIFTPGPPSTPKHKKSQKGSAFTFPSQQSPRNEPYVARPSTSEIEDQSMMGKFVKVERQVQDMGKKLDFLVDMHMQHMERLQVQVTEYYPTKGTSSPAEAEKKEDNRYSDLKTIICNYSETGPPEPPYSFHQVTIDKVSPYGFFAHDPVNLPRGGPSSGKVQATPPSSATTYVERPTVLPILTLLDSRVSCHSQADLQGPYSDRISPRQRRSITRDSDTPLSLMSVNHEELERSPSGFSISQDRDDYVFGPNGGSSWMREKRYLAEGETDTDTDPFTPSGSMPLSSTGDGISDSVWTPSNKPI

[2] = molecular target: T2, KCNQ5 coexpressed with KCNQ3 (T323Y) mutant (Homo sapiens, UniProt O43525+Q9NR82, T323Y); assay: Two-electrode voltage clamp of KCNQ5 coexpressed with the KCNQ3 (T323Y) mutant in Xenopus oocytes; type: cell-based; details: coexpression of KCNQ5 with the KCNQ3 (T323Y) mutant; Fig. 5C; read-out: IC50 (TEA sensitivity)
T2 construct: expressed in transfected cells; host or cells: Xenopus oocytes co-injected with cRNAs
T2 sequence (Q9NR82 36-932 limits assumed): as the sequence (Q9NR82 36-932 limits assumed) above
T2 sequence (O43525 whole entry T323Y): as the sequence (O43525 whole entry) above, with T323Y counted along it
Excerpt: Two-electrode voltage-clamp current traces from a Xenopus oocyte injected with KCNQ5 cRNA. […] Starting from a holding potential of -80 mV cells were clamped for 2 seconds to voltages between -80 and +40 mV, in +10 mV steps, followed by a constant test pulse to -30 mV; • Figs. 4A-G show the electrophysiological properties of KCNQ5. Both the splice variant I (found in brain) and splice variant III (found in muscle) were expressed in Xenopus oocytes and examined by two-electrode voltage clamping. Both variants activate slowly upon depolarisation, but form I (4A) initially activates slower than the muscle form III (4B). Starting from a holding potential of -80 mV, the voltage was stepped for 0.8 seconds to values between -100 and + 40 mV in steps of 10 mV, followed by a voltage step to -30 mV (see inset, panel A). Channel activation by depolarization was fitted (for 2 sec. steps) by a sum of three exponential functions. For a step to +20 mV, the rate constants were ô1 = 37. 2 ± 2.2 ms, ô2 = 246 ± 17 ms, and ô3 = 1112 ± 91 ms for splice variant I, while these constants were ô1 = 24.5 ± 0.8 ms, ô2 = 163 ± 6 ms, and ô3 = 1690 ± 46 ms (± SEM, n=16). This difference in kinetics also results in different curves when a typical M-current protocol is used (4C, variant I; 4D, variant III). Variant I induces currents that kinetically resemble M-currents. […]

C[C@@H]1O[C@H](C[N+](C)(C)C)C[C@H]1O [muscarine]
effect on KCNQ5 currents (KCNQ5): No effect | effect on KCNQ5 currents by stimulating co-expressed M1 receptors [1]: inhibition of KCNQ5 currents

O=C1N(c2ccccc2)c2ccccc2C1(Cc1ccncc1)Cc1ccncc1 [Linopirdine, 1,3-dihydro-1-phenyl-3,3-bis-(4-pyridylmethyl)-2H-indol-2-one]
inhibition of KCNQ2/KCNQ3 channels (KCNQ2/KCNQ3 channels): nearly completely inhibits | inhibition at 200 µM (KCNQ5; 200 µM Linopirdine in ND98): ~80% | IC50 (KCNQ5): 0.051 ± 0.005 mM

CC[N+](CC)(CC)CC [TEA]
IC50 [2]: ~30 mM | IC50 (KCNQ5): 71 ± 17 mM

[Ba+2] [Ba^++]
inhibition of KCNQ5 currents (KCNQ5; 5 mM Ba++): more than 80%

C[N+](C)(C)CC#CCN1CCCC1=O [oxotremorine methiodide]
effect on KCNQ5 currents (KCNQ5): No effect

O=C(O)c1cccnc1Nc1cccc(C(F)(F)F)c1 [Niflumic acid]
shift of the voltage dependence of the apparent popen towards negative potentials (KCNQ5; 500 µM niflumic acid, Fig. 5B): about 20 mV

From patent EP1194447B1, “NOVEL POTASSIUM CHANNELS AND GENES ENCODING THESE POTASSIUM CHANNELS” (NEUROSEARCH A/S, priority 1999, dated 2000)
